Results from patent US7595333B2, “Agent for improving acidosis” (priority 1999, dated 2009).
Counter-ions that a name gives are not always drawn.

Columns and labels:
Wistar fatty rats [1] = experiment: Effect on ketosis caused by a biguanide (metformin) in Wistar fatty rats (total ketone bodies in plasma); format: in vivo, rat; conditions: for concentration of total ketone bodies, higher as compared with Group A (without metformin and pioglitazone hydrochloride) / concentration of total ketone bodies in plasma: metformin 300 mg/kg/day; for concentration of total ketone bodies, higher as compared with Group A (without metformin and pioglitazone hydrochloride): difference of means; for concentration of total ketone bodies in plasma: Wistar fatty rats, pioglitazone hydrochloride 1 mg/kg/day, mean ± SD, n=6
Source text: 3-Hydroxybutyric acid (3-HB) in samples is specifically oxidized by 3-hydroxybutyric acid dehydrogenase (3-HBDH) in the presence of an oxidized form of β-thionicotinamide adenine dinucleotide (thio-NAD) to produce acetoacetic acid (AcAc) and a reduced form of β-thionicotinamide adenine dinucleotide (thio-NADH). […] The concentration of total ketone bodies which is the sum of 3-HB and AcAc in samples can be calculated by determining a production speed of thio-NADH thus obtained.
Effects of an insulin sensitizer (pioglitazone hydrochloride) on ketosis caused by a biguanide (metformin) in Wistar fatty rats, NIDDM models, were studied.
First, Wistar fatty rats (31 week-old, male) were divided into three groups, namely Groups A, B and C, each consisting of 6 rats. […] After administration, blood was collected from the tail vein of the Wistar fatty rats, and total ketone bodies in the plasma were determined in the same manner as in Experimental Example 1.
In the table, W. fatty. Met and Pio mean Wistar fatty rat, metformin and pioglitazone hydrochloride, respectively. Figures in the table represent means ± standard deviation (number of subjects=6).
The concentration of total ketone bodies in plasma of Wistar fatty rats was determined in the same manner as in Experimental Example 2 except that the administration period was changed from 14 days to 7 days.

Wistar fatty rats [2] = experiment: Effect on diabetic ketosis in Wistar fatty rats (total ketone bodies in plasma); format: in vivo, rat; conditions: for concentration of total ketone bodies in plasma: Wistar fatty rats (31 week-old, male), pioglitazone hydrochloride 1 mg/kg body weight/day orally for 14 days, mean ± SD, n=6, control without Pio 170.23 ± 22.33 μM
Source text: For instance, diabetic ketosis is observed in a Wistar fatty rat which is an animal model of non-insulin dependent (type 2) diabetes mellitus. Therefore, a ketosis improving action of a test compound can be evaluated by comparing concentration of total ketone bodies in plasma between Wistar fatty rat groups with administration of a test compound (Experimental group) and Wistar fatty rat groups without administration of a test compound (Control group). […] 3-Hydroxybutyric acid (3-HB) in samples is specifically oxidized by 3-hydroxybutyric acid dehydrogenase (3-HBDH) in the presence of an oxidized form of β-thionicotinamide adenine dinucleotide (thio-NAD) to produce acetoacetic acid (AcAc) and a reduced form of β-thionicotinamide adenine dinucleotide (thio-NADH). […] Effects of an insulin sensitizer (pioglitazone hydrochloride) on diabetic ketosis in Wistar fatty rats, animal models of non-insulin dependent diabetes mellitus (NIDDM), were studied. First, Wistar fatty rats (31 week-old, male) were divided into two groups each consisting of 6 rats. […] After administration, blood was collected from the tail vein of the Wistar fatty rats, and total ketone bodies in the plasma were enzymatically determined by using AutoWako total ketone bodies (Trade name)(Wako Pure Chemical Industries, Ltd., Japan) and Hitachi 7070 Autoanalyzing machine. Wistar lean rats (6 rats), animal models of non diabetes mellitus (normal), were orally administered with a 0.5 (w/v) % aqueous methylcellulose solution for 14 days. Then, total ketone bodies in the plasma were determined in the same manner as above. In the table, W, lean, W. fatty and Pio mean Wistar lean rat, Wistar fatty rat and pioglitazone hydrochloride, respectively. Figures in the table represent means ± standard deviation (number of subjects=6).

SMILES	effect on ketosis caused by a biguanide (conclusion in words) (Wistar fatty rats [1]; Experimental Examples 2 and 3 (14 and 7 days))	concentration of total ketone bodies in plasma (Wistar fatty rats [2]) [µM]	concentration of total ketone bodies in plasma (Wistar fatty rats [2]; listed as Pio) [µM]	effect on diabetic ketosis (conclusion in words) (Wistar fatty rats [2]; Wistar fatty rats, 1 mg/kg/day orally, 14 days)	concentration of total ketone bodies, lower as compared with the group without pioglitazone hydrochloride (Wistar fatty rats [2]; Wistar fatty rats, 1 mg/kg/day orally, 14 days, difference of means) [µM]	concentration of total ketone bodies, higher as compared with Group A (without metformin and pioglitazone hydrochloride) (Wistar fatty rats [1]; 7 days) [µM]	concentration of total ketone bodies, higher as compared with Group A (without metformin and pioglitazone hydrochloride) (Wistar fatty rats [1]; 14 days) [µM]	concentration of total ketone bodies in plasma (Wistar fatty rats [1]; 7 days orally, Group A control 160.37 ± 14.00 μM) [µM]	concentration of total ketone bodies in plasma (Wistar fatty rats [1]; 7 days orally, Group A control 160.37 ± 14.00 μM, listed as Met) [µM]	concentration of total ketone bodies in plasma (Wistar fatty rats [1]; 14 days orally, Group A control 170.23 ± 22.33 μM) [µM]	concentration of total ketone bodies in plasma (Wistar fatty rats [1]; 14 days orally, Group A control 170.23 ± 22.33 μM, listed as Met) [µM]
CCc1ccc(CCOc2ccc(CC3SC(=O)NC3=O)cc2)nc1 (centres unmarked) [pioglitazone hydrochloride, 5-[4-[2-(5-ethyl-2-pyridyl)ethoxy]benzyl]-2,4-thiazolidinedione]	improves ketosis caused by a biguanide (metformin)	125.72 ± 12.49	125.72 ± 12.49	improves diabetic ketosis	44.51	–	–	–	–	–	–
CN(C)C(=N)N=C(N)N [metformin]	–	–	–	–	–	38.86	11.77	199.23 ± 55.69	199.23 ± 55.69	182.00 ± 22.50	182.00 ± 22.50
